Series [1] has as its target T1, mGluR5 (Rattus norvegicus, UniProt P31424).
T1 construct: positive allosteric modulators of mGluR5 receptors in native preparations; endogenous in cells; host or cells: primary cortical astrocytes from Sprague-Dawley rat embryos (E16-19)
In words: mGluR5 binding assay ([3H]-MPEP, rat brain membranes). To be noted: 3 nM [3H]-MPEP, 1 h at 4° C. An excerpt:
Activity of compounds of the invention was examined following a radioligand binding technique using whole rat brain and tritiated 2-methyl-6-(phenylethynyl)-pyridine ([^3H]-MPEP) as a ligand following similar methods than those described in Gasparini et al. (2002) Bioorg. Med. Chem. Lett. 12:407-409 and in Anderson et al. (2002) J. Pharmacol. Exp. Ther. 303 (3) 1044-1051.
Cortices were dissected out from brains of 200-300g Sprague-Dawley rats (Charles River Laboratories, L'Arbresle, France). Tissues were homogenized in 10 volumes (vol/wt) of ice-cold 50 mM HEPES-NaOH (pH 7.4) using a Polytron disrupter (Kinematica AG, Luzern, Switzerland) and centrifuged for 30 min at 40,000 g. (4° C.). […] Protein concentration was determined by the Bradford method (Bio-Rad protein assay, Reinach, Switzerland) with bovine serum albumin as standard.
Membranes were thawed and resuspended in binding buffer containing 20 mM HEPES-NaOH, 3 mM MgCl2, 3 mM CaCl2, 100 mM NaCl, pH 7.4. […] Radioactivity was determined by liquid scintillation spectrometry using a 96-well plate reader (TopCount, Perkin-Elmer, Downers Grove, USA).
The inhibition curves were generated using the Prism GraphPad program (Graph Pad Software Inc, San Diego, USA). […] The mean of IC50 obtained from at least three independent experiments of selected molecules performed in duplicate were calculated.

The target of another series is T2, rat mGluR5 receptor (Rattus norvegicus, UniProt P31424).
T2 construct: expressed in transfected cells
T2 sequence (P31424 21-1171 isoform P31424-2 limits assumed): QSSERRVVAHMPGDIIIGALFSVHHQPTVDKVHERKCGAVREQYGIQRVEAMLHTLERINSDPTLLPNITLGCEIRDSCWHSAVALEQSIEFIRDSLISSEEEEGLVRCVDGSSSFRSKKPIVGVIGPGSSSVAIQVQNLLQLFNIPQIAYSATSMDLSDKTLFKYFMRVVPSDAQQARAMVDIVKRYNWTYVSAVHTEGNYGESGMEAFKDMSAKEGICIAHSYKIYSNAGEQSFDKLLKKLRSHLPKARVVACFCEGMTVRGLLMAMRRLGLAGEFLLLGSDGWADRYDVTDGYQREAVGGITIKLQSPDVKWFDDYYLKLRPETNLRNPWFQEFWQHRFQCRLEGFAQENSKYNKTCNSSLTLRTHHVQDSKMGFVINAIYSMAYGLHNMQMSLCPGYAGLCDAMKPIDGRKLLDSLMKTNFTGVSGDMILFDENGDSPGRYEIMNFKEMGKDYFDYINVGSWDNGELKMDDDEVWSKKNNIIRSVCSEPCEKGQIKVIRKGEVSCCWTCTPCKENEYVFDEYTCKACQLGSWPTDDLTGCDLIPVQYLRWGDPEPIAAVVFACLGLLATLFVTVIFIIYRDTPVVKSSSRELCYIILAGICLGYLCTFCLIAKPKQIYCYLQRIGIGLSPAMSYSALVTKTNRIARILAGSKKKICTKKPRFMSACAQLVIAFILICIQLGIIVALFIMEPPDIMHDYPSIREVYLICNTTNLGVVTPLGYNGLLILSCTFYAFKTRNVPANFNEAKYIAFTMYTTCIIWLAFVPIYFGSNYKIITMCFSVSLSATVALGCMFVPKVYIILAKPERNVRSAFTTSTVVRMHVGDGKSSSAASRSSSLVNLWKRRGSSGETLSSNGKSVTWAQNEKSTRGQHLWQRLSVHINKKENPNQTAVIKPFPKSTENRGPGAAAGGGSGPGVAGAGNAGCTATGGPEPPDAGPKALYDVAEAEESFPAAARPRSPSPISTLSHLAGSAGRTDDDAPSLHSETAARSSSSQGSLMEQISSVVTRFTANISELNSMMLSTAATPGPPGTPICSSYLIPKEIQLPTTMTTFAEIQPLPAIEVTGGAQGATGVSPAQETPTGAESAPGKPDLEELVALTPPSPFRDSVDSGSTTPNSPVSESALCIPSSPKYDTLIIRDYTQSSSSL
In words: mGluR5 assay on HEK-expressing rat mGluR5 (fluorescent cell based Ca2+ mobilization assay). To be noted: for EC50: HEK-293 cells stably expressing rat mGluR5, no co-addition of glutamate, mean of at least three independent experiments in duplicate, read-out: Ca++ Flux (mean EC50); for activation of rat mGluR5 receptors: HEK-rat mGluR5 cell line, without co-addition of glutamate or mGluR5 agonist. The method, then: Positive functional expression of HEK-293 cells stably expressing rat mGluR5 receptor was determined by measuring intracellular Ca^2+ changes using a Fluorometric Imaging Plate Reader (FLIPR, Molecular Devices, Sunnyvale, Calif.) in response to glutamate or selective known mGluR5 agonists and antagonists. Rat mGluR5 RT-PCR products in HEK-293 cells were sequenced and found 100% identical to rat mGluR5 Genbank reference sequence (NM_017012). HEK-293 cells expressing rmGluR5 were maintained in media containing DMEM, dialyzed Fetal Bovine Serum (10%), Glutamax™ (2 mM), Penicillin (100 units/ml), Streptomycin (100 μg/ml), Geneticin (100 μg/ml) and Hygromycin-B (40 μg/ml) at 37° C./5% CO2.
After one day of incubation, cells were washed with assay buffer containing: 142 mM NaCl, 6 mM KCl, 1 mM […], 1 mM CaCl2, 20 mM HEPES, 1 g/L glucose, 0.125 mM sulfinpyrazone, pH 7.4. After 60 min of loading with 4 uM Fluo-4 (TefLabs, Austin, Tex.), the cells were washed three times with 50 μl of PBS Buffer and resuspended in 45 μl of assay Buffer. The plates were then transferred to a Fluorometric Imaging Plate Reader (FLIPR, Molecular Devices, Sunnyvale, Calif.) for the assessment of intracellular calcium flux. After monitoring the baseline fluorescence for 10 seconds, increasing concentrations of representative compound (from 0.01 to 60 μM) of the present invention diluted in Assay Buffer (15 μl of 4× dilutions) was added to the cell. The final DMSO concentration in the assay was 0.3%. In each experiment, fluorescence was then monitored as a function of time for 3 minutes and the data analyzed using Microsoft Excel and GraphPad Prism. Each data point was also measured two times.
Under these experimental conditions, this HEK-rat mGluR5 cell line is able to directly detect positive allosteric modulators without the need of co-addition of glutamate or mGluR5 agonist.
The concentration-response curves of representative compounds of the present invention were generated using the Prism GraphPad software (Graph Pad Inc, San Diego, USA). The curves were fitted to a four-parameter logistic equation:
(Y=Bottom+(Top−Bottom)/(1+10̂((LogEC50−X)*Hill Slope)
allowing determination of EC50 values.
The Table 1 below represents the mean EC50 obtained from at least three independent experiments of selected molecules performed in duplicate.
A general note: Calcium assays in cells follow changes in intracellular calcium, usually with a dye or a luminescent sensor.

Series [2] has as its target T1, mGluR5. The conditions noted are these: Liu et al (2006), Zhang et al (2005); cited from earlier work.

For orientation: melting point means the temperature, or range, at which the solid turns liquid. As usually defined, the IC50 is the concentration that inhibits the measured activity by half. Read a low IC50 as inhibition by little substance. Broadly, the EC50 is the concentration that produces a half-maximal response.

Where only a bound is given, the exact number is not on record here.

T1 sequence (P31424 21-1203): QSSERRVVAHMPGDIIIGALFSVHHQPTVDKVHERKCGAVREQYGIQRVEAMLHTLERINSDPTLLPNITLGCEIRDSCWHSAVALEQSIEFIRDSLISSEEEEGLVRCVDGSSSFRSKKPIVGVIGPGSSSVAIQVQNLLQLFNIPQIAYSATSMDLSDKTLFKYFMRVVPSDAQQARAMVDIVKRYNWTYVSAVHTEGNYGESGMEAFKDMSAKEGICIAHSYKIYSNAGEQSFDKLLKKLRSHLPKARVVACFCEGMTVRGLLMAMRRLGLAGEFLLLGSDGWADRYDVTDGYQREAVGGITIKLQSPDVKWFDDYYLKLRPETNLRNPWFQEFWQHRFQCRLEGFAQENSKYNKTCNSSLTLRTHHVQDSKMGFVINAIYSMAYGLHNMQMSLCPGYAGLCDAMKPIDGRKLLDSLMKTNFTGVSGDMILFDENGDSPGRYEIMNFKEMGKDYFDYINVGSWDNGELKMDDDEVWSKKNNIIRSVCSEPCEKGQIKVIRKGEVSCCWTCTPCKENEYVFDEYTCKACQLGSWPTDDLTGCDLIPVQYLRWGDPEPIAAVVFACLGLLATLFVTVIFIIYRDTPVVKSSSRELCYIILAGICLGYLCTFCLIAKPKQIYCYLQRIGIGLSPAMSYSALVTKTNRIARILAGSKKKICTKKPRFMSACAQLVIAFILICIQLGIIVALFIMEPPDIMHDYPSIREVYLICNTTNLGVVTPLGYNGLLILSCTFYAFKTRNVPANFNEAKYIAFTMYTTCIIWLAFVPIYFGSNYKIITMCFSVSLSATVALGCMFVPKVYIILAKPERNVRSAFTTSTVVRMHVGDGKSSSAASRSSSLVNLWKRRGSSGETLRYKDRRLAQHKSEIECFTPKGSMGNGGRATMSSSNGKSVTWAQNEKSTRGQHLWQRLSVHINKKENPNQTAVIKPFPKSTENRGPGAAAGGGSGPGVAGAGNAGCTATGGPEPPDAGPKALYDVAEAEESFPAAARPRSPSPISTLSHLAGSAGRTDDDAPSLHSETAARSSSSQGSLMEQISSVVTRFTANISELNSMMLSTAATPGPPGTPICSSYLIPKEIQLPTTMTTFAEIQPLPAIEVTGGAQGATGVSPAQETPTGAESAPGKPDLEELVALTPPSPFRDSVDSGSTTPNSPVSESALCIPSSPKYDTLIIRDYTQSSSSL

As to `O=C(c1ccc(F)cc1)N1CCC[C@H](c2nc(-c3ccc[nH]3)no2)C1` [Example 1, (4-Fluoro-phenyl)-{(S)-3-[3-(1H-pyrrol-2-yl)-[1,2,4]oxadiazol-5-yl]-piperidin-1-yl}-methanone], the melting point lay within 130 to 135 °C. Also, the concentration for half-maximal inhibition (IC50) at mGluR5 [1] was under 30000 nM. For the same compound, the 50% effective concentration (EC50) at rat mGluR5 receptor was under 1000 nM.

Compound `O=C(c1ccc(F)nc1)N1CCCC(c2noc(-c3ccc[nH]3)n2)C1` (stereo not shown) [Example 8, (6-Fluoro-pyridin-3-yl)-{3-[5-(1H-pyrrol-2-yl)-[1,2,4]oxadiazol-3-yl]-piperidin-1-yl}-methanone] showed a melting point of 143 °C. In addition, the EC50 on rat mGluR5 receptor was 1000 to 10000 nM.

`O=C(c1ccc(F)cc1)N1CCCC(F)(c2nc(-c3ccc[nH]3)no2)C1` (stereo not shown) [Example 47, (4-Fluoro-phenyl)-{3-fluoro-3-[3-(1H-pyrrol-2-yl)-[1,2,4]oxadiazol-5-yl]-piperidin-1-yl}-methanone]: the melting point was 114.8 to 118 °C. At rat mGluR5 receptor, the EC50 was in the range of 1000 to 10000 nM.

The compound `O=C(c1ccc(F)cc1)N1CCCC(c2noc(-c3cc4ccccc4[nH]3)n2)C1` (stereo not shown) [Example 11, (4-Fluoro-phenyl)-{3-[5-(1H-indol-2-yl)-[1,2,4]oxadiazol-3-yl]-piperidin-1-yl}-methanone] had a melting point of 199 to 201 °C. The 50% effective concentration (EC50) at rat mGluR5 receptor lay within 1000 to 10000 nM.

Regarding `O=C(c1ccc(F)nc1)N1CCC[C@H](c2noc(-c3ccc[nH]3)n2)C1` [Example 21, (6-Fluoro-pyridin-3-yl)-{(S)-3-[5-(1H-pyrrol-2-yl)-[1,2,4]oxadiazol-3-yl]-piperidin-1-yl}-methanone], the melting point stood at 147 °C. Further, on rat mGluR5 receptor, the EC50 was under 1000 nM.

In turn, `O=C(c1ccc(F)cc1)N1CCC[C@H](c2noc(-c3ccc[nH]3)n2)C1` [Example 22, (4-Fluoro-phenyl)-{(S)-3-[5-(1H-pyrrol-2-yl)-[1,2,4]oxadiazol-3-yl]-piperidin-1-yl}-methanone] came in with a melting point of 181 °C. Besides, the EC50 on rat mGluR5 receptor is under 1000 nM.

The compound `O=C(c1ccc(F)cc1F)N1CCCC(c2noc(-c3ccc[nH]3)n2)C1` (stereo not shown) [Example 6, (2,4-Difluoro-phenyl)-{3-[5-(1H-pyrrol-2-yl)-[1,2,4]oxadiazol-3-yl]-piperidin-1-yl}-methanone] yielded a melting point of 151 °C. The EC50 at rat mGluR5 receptor is under 1000 nM.

In the case of `N#Cc1cccc(C(=O)Nc2cc(-c3ccccc3)nn2-c2ccccc2)c1` [CDPPB, reference compound], the “activity in rat cortical astrocytes culture in the absence of added glutamate” value (“activity” for short) on mGluR5 [2] is “inactive”. The “activation of rat mGluR5 receptors” value at rat mGluR5 receptor was “activating”.

Regarding `Cc1c[nH]c(-c2nc([C@H]3CCCN(C(=O)c4ccc(F)cc4)C3)no2)c1` [Example 27, (4-Fluoro-phenyl)-{(S)-3-[5-(4-methyl-1H-pyrrol-2-yl)-[1,2,4]oxadiazol-3-yl]-piperidin-1-yl}-methanone], the melting point was determined as 183 °C. The EC50 on rat mGluR5 receptor is under 1000 nM.

Turning to `O=C(c1ccc(F)c(F)c1)N1CCC[C@H](c2nc(-c3cc4ccccc4[nH]3)no2)C1` [Example 15, (3,4-Difluoro-phenyl)-{(S)-3-[3-(1H-indol-2-yl)-[1,2,4]oxadiazol-5-yl]-piperidin-1-yl}-methanone], the melting point fell in the range of 93 to 94 °C. In addition, at rat mGluR5 receptor, the EC50 was over 10000 nM.

`Fc1cccc(/C=N/N=C/c2cccc(F)c2)c1` [DFB, reference compound]: the “activity” value on mGluR5 [2] was “inactive”. Moreover, the “activation of rat mGluR5 receptors” value on rat mGluR5 receptor is “activating”.

The compound `O=C(c1ccc(F)c(F)c1)N1CCC[C@H](c2nc(-c3cc(F)c[nH]3)no2)C1` [Example 51, (3,4-Difluoro-phenyl)-{(S)-3-[3-(4-fluoro-1H-pyrrol-2-yl)-[1,2,4]oxadiazol-5-yl]-piperidin-1-yl}-methanone] registered a melting point of 147.5 to 148.2 °C. The concentration for a half-maximal effect (EC50) at rat mGluR5 receptor was under 1000 nM.

Turning to `O=C(Nc1ccc(Cl)cc1CN1C(=O)c2ccccc2C1=O)c1ccccc1O` [CPPHA, reference compound], the “activity” value at mGluR5 [2] was “inactive”. In addition, the “activation of rat mGluR5 receptors” value on rat mGluR5 receptor is given as “activating”.

`Cc1oncc1C(=O)N1CCC[C@H](c2nc(-c3cc4ccccc4[nH]3)no2)C1` [Example 19, {(S)-3-[3-(1H-Indol-2-yl)-[1,2,4]oxadiazol-5-yl]-piperidin-1-yl}-(5-methyl-isoxazol-4-yl)-methanone]: the melting point lay within 163 to 164 °C. Besides, on rat mGluR5 receptor, the concentration for a half-maximal effect (EC50) is 1000 to 10000 nM.

`O=C(c1ccc(F)c(F)c1)N1CCC[C@H](c2noc(-c3ccc[nH]3)n2)C1` [Example 10, (3,4-Difluoro-phenyl)-{(S)-3-[5-(1H-pyrrol-2-yl)-[1,2,4]oxadiazol-3-yl]-piperidin-1-yl}-methanone] registered a melting point of 168 °C. Further, the concentration giving a half-maximal response (EC50) on rat mGluR5 receptor was under 1000 nM.

On to `O=C(c1ccc(F)c(F)c1)N1CCCC(c2noc(-c3ccc[nH]3)n2)C1` (stereo not shown) [Example 5, (3,4-Difluoro-phenyl)-{3-[5-(1H-pyrrol-2-yl)-[1,2,4]oxadiazol-3-yl]-piperidin-1-yl}-methanone], for which the melting point came out at 177 °C. For the same compound, the EC50 on rat mGluR5 receptor is under 1000 nM.

Turning to `O=C(c1ccc(F)cc1)N1CCCC(c2noc(-c3ccc[nH]3)n2)C1` (stereo not shown) [Example 7, (4-Fluoro-phenyl)-{3-[5-(1H-pyrrol-2-yl)-[1,2,4]oxadiazol-3-yl]-piperidin-1-yl}-methanone], the melting point came to 158 °C. Besides, at rat mGluR5 receptor, the concentration for a half-maximal effect (EC50) was under 1000 nM.

`Cc1c[nH]c(-c2noc([C@H]3CCCN(C(=O)c4ccc(F)c(F)c4)C3)n2)c1` [Example 32, (3,4-Difluoro-phenyl)-{(S)-3-[3-(4-methyl-1H-pyrrol-2-yl)-[1,2,4]oxadiazol-5-yl]-piperidin-1-yl}-methanone]: the melting point lay within 166 to 167 °C. The EC50 at rat mGluR5 receptor is under 1000 nM.

The record behind these values is US20090203737A1, “Pyrrole Derivatives as Positive Allosteric Modulators of Metabotropic Receptors” (priority 2005, published 2009).
